Here are results for ten molecules from ChEMBL document CHEMBL1201862, “PubChem BioAssay data set” (2004).

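Briefly, cells in 96-well plates were exposed to five compound concentrations for 48 h, and endpoints were estimated by linear interpolation. Here, GI50 denotes the concentration required for 50% inhibition of growth.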 Activity calls are given as the source filed them. No stated cut-off is given here; in the data, active = GI50 up to about 1.1 µM and inactive = higher.

Some test systems named below: MOLT-4; OVCAR-3; K562; HCT-15; OVCAR-8; CCRF-CEM; SW-620; SN12C; A498; U-251; HCC 2998; HCT-116; HOP-62; SF-295; HL-60; SR.
What all share (assay): NCI anticancer screen, dose series, 48 h

On to `Cc1ccc(C)c(NC(=O)CCC(=O)CC(=O)C(C)(C)C)c1`, for which the GI50 with MOLT-4 is > 100 µM (inactive); in the experiment with OVCAR-3, > 100 µM (inactive); with K562, > 100 µM (inactive); in the experiment on HCT-15 it was above 100 µM; in the experiment with OVCAR-8 it was > 100 µM (inactive); with CCRF-CEM, > 100 µM (inactive). For the same molecule, the GI50 with SW-620, in the experiment with SN12C, with A498, with U-251, in the experiment with HCC 2998 and in the experiment on HCT-116 was > 100 µM (inactive) each time. Further, the GI50 in the experiment on HOP-62 is > 100 µM (inactive).
With `Cc1cc(N(CCC#N)S(=O)(=O)c2ccccc2)ccc1/C=C1\N=C(c2ccc(Cl)cc2)OC1=O`, the GI50 in the experiment with SF-295 was > 100 µM (inactive); with MOLT-4, > 100 µM (inactive); with OVCAR-3, > 100 µM (inactive); in the experiment on K562 it was > 100 µM (inactive); in the experiment with HCT-15 it was above 100 µM; in the experiment with OVCAR-8, > 100 µM (inactive). For the same molecule, the GI50 in the experiment on CCRF-CEM is 55.5 µM (inactive); with SW-620, > 100 µM (inactive); in the experiment on SN12C, > 100 µM (inactive); with A498, > 100 µM (inactive); with HL-60, > 100 µM (inactive); in the experiment with U-251, 54 µM (inactive). Moreover, the GI50 in the experiment with HCC 2998 and in the experiment on HCT-116 was > 100 µM (inactive) in each case.
Take `O=C1[C@@H]2C(c3ccncc3)=NO[C@@H]2C(=O)N1c1ccc(Cc2ccc(N3C(=O)[C@H]4C(c5ccncc5)=NO[C@H]4C3=O)cc2)cc1`: the GI50 is > 100 µM (inactive) in the experiment on SF-295; > 100 µM (inactive) in the experiment on MOLT-4; > 100 µM (inactive) in the experiment with OVCAR-3; > 100 µM (inactive) in the experiment with K562; above 100 µM with HCT-15; > 100 µM (inactive) with OVCAR-8. The GI50 in the experiment with CCRF-CEM, in the experiment on SW-620, in the experiment on SN12C, in the experiment on A498, in the experiment with HL-60 and with U-251 was > 100 µM (inactive) throughout. Moreover, the GI50 in the experiment on HCC 2998 and in the experiment on HOP-62 was > 100 µM (inactive) throughout.
Regarding `CC(O)C(N/C=C1/N=C(c2ccccc2)OC1=O)C(=O)O` (stereo not drawn), the GI50 was > 100 µM (inactive) with SF-295; > 100 µM (inactive) with OVCAR-3; > 100 µM (inactive) with K562; 10 µM with HCT-15; > 100 µM (inactive) in the experiment with OVCAR-8; > 100 µM (inactive) in the experiment on CCRF-CEM. Moreover, the GI50 with SW-620 was > 100 µM (inactive); in the experiment on A498, > 100 µM (inactive); in the experiment on HL-60, 10 µM (inactive); in the experiment with U-251, > 100 µM (inactive); in the experiment with HCC 2998, > 100 µM (inactive); in the experiment on HCT-116 it was > 100 µM (inactive). Also, the GI50 in the experiment with HOP-62 was > 100 µM (inactive).
Consider `OC1=CN=C(c2ccccc2)Oc2ccccc21`, for which the GI50 is 32 µM (inactive) in the experiment on SF-295; > 100 µM (inactive) in the experiment on MOLT-4; 15.3 µM (inactive) in the experiment with OVCAR-3; > 100 µM (inactive) in the experiment with K562; above 100 µM in the experiment on HCT-15; > 100 µM (inactive) with OVCAR-8. Also, the GI50 in the experiment with CCRF-CEM, in the experiment on SW-620, in the experiment on SN12C, in the experiment with A498, with HL-60 and in the experiment on U-251 was > 100 µM (inactive) throughout. Also, the GI50 with HCC 2998 was > 100 µM (inactive); with HCT-116, 45.4 µM (inactive); with HOP-62 it was 68.1 µM (inactive).
Regarding `Sc1nnc(-c2ccnc(-c3nnc(S)[nH]3)c2)[nH]1`, the GI50 in the experiment on SF-295 was > 100 µM (inactive); in the experiment with MOLT-4, > 100 µM (inactive); in the experiment on OVCAR-3 it was > 100 µM (inactive); in the experiment on K562, > 100 µM (inactive); in the experiment with HCT-15 it was above 100 µM; with OVCAR-8, > 100 µM (inactive). Also, the GI50 in the experiment with CCRF-CEM, with SW-620, with SN12C, in the experiment on A498, in the experiment with HL-60 and in the experiment on U-251 was > 100 µM (inactive) in each case. Besides, the GI50 in the experiment on HCC 2998, in the experiment with HCT-116 and with HOP-62 was > 100 µM (inactive) each time.
Consider `O=C1OC(c2ccccc2)=N/C1=C\c1ccc2ccccc2c1`, for which the GI50 in the experiment on MOLT-4 is > 100 µM (inactive); in the experiment with OVCAR-3 it was > 100 µM (inactive); in the experiment with K562, > 100 µM (inactive); with HCT-15, above 100 µM; in the experiment on OVCAR-8 it was > 100 µM (inactive); in the experiment on CCRF-CEM, > 100 µM (inactive). Further, the GI50 in the experiment on SW-620, in the experiment with SN12C, in the experiment on A498, in the experiment on U-251 and in the experiment on HCT-116 was > 100 µM (inactive) each time.
Turning to `O=S(=O)(C1=CC(S(=O)(=O)c2ccccc2)CN(Cc2ccccc2)C1c1cccc2ccccc12)c1ccccc1` (stereo not drawn), the GI50 is > 69 µM (inactive) in the experiment with SF-295; > 69 µM (inactive) in the experiment on MOLT-4; > 69 µM (inactive) in the experiment on OVCAR-3; > 69 µM (inactive) with K562; above 69 µM with HCT-15; > 69 µM (inactive) in the experiment with OVCAR-8. Besides, the GI50 with CCRF-CEM, with SW-620, in the experiment with SN12C, with A498, with HL-60 and in the experiment on U-251 was > 69 µM (inactive) in each case. Moreover, the GI50 with HCC 2998, in the experiment on HCT-116 and in the experiment with HOP-62 was > 69 µM (inactive) in each case.
Regarding `O=C(NCC(=O)N1CCOC1=O)OCc1ccccc1`, the GI50 in the experiment with SF-295 was > 100 µM (inactive); in the experiment on MOLT-4 it was > 100 µM (inactive); in the experiment on OVCAR-3 it was > 100 µM (inactive); in the experiment on K562, > 100 µM (inactive); with HCT-15 it was above 100 µM; in the experiment on OVCAR-8, > 100 µM (inactive). In addition, the GI50 with CCRF-CEM, with SW-620, in the experiment with SN12C, in the experiment on A498, in the experiment with HL-60 and in the experiment with U-251 was > 100 µM (inactive) each time. The GI50 with HCC 2998, with HCT-116 and in the experiment on HOP-62 was > 100 µM (inactive) each time.
Turning to `Cc1ccc(NC(=O)CSc2nnc(-c3ccc(/N=C\c4ccc(Cl)cc4)cc3)o2)cc1`, the GI50 is > 100 µM (inactive) with SF-295; > 100 µM (inactive) in the experiment with MOLT-4; > 100 µM (inactive) in the experiment with K562; above 100 µM with HCT-15; > 100 µM (inactive) in the experiment on OVCAR-8; > 100 µM (inactive) in the experiment with SR. Further, the GI50 with CCRF-CEM, in the experiment with SW-620, with SN12C, in the experiment on HL-60, in the experiment on U-251 and in the experiment on HCT-116 was > 100 µM (inactive) throughout. Also, the GI50 with HOP-62 was > 100 µM (inactive).
